This note sets out measurements from ChEMBL document CHEMBL2203060, “Design, synthesis and biological evaluation of N-arylphenyl-2,2-dichloroacetamide analogues as anti-cancer agents” (Bioorg Med Chem Lett, 2012).

Type in all cases: functional, cell-based
One assay relates to A549. Put plainly: Cytotoxicity against human A549 cells after 68 hrs by MTT assay. The following applies: A549, 68 h. Background: Tetrazolium dyes change colour on reduction, which living cells bring about.
Another assay concerns NCI-H460. Put plainly: Cytotoxicity against human H460 cells after 68 hrs by MTT assay. The following applies: NCI-H460, 68 h.
A short description of assay [1]: Cytotoxicity against human KB-3-1 cells after 68 hrs by MTT assay. The following applies: KB 3-1, 68 h.

pIC50: −log10 of the molar value.

`O=C(Nc1cccc(-c2nccs2)c1)C(Cl)Cl`: the pIC50 (in the assay on A549; with NCI-H460; in assay [1]) was below 4.30 in each case.
Turning to `O=C(Nc1cc(-c2ccc3c(c2)OCO3)cc(-c2ccc3c(c2)OCO3)c1)C(Cl)Cl`, the pIC50 in the assay with A549 is 5.76; in the assay on NCI-H460 it was 5.98; in assay [1], 5.62.
`O=C(Nc1cc(-c2ccc(OC3CCCCO3)cc2)cc(-c2ccc(OC3CCCCO3)cc2)c1)C(Cl)Cl` (stereo not drawn): the negative-log IC50 (pIC50) with A549 is 5.56; with NCI-H460, 5.62; in assay [1], 5.14.
`CC(C)c1ccc(-c2cc(NC(=O)C(Cl)Cl)cc(-c3ccc(C(C)C)cc3)c2)cc1`: the pIC50 was 4.76 in the assay with A549, 4.61 with NCI-H460 and below 4.52 in assay [1].
For `COc1ccc(-c2cc(NC(=O)C(Cl)Cl)cc(-c3ccc(OC)c(F)c3)c2)cc1F`, the values for the pIC50 (with A549; with NCI-H460; in assay [1]) were 5.71, 5.75 and 5.53, respectively.
For `COc1cc(F)cc(-c2cc(NC(=O)C(Cl)Cl)cc(-c3cc(F)cc(OC)c3)c2)c1`, in that order: 5.05, 5.54 and 5.22.
The matching figures for `O=C(Nc1cccc(-c2cccc(NC(=O)C(Cl)Cl)c2)c1)C(Cl)Cl`: 4.32, below 4.30 and below 4.30.
Take `Cc1ccc(-c2cccc(NC(=O)C(Cl)Cl)c2)cc1`: the values for the pIC50 (in the assay with A549; in the assay on NCI-H460; in assay [1]) were 5.08, 5.10 and below 4.30, respectively.
For `O=C(Nc1cccc(-c2ccc(F)cc2)c1)C(Cl)Cl`, in that order: 5.11, below 4.30 and 4.58.
The matching figures for `O=C(Nc1cccc(-c2ccc(Cl)cc2)c1)C(Cl)Cl`: 4.44, below 4.30 and 4.42.
In the case of `COc1ccc(-c2cccc(NC(=O)C(Cl)Cl)c2)cc1`, the results for the pIC50 (in the assay with A549; with NCI-H460; in assay [1]) were 5.07, 4.36 and below 4.30, respectively.
The matching figures for `O=C(Nc1cccc(-c2ccc(C(F)(F)F)cc2)c1)C(Cl)Cl`: 4.63, 4.47 and below 4.30.
The matching figures for `O=C(Nc1cccc(-c2ccc(-c3ccccc3)cc2)c1)C(Cl)Cl`: below 4.30, 4.96 and below 4.30.
Turning to `COC(=O)c1ccc(-c2cccc(NC(=O)C(Cl)Cl)c2)cc1`, the negative logarithm of the IC50 (pIC50) (in the assay on A549; in the assay on NCI-H460; in assay [1]) was below 4.30 in each case.
Consider `COc1ccccc1-c1cc(NC(=O)C(Cl)Cl)cc(-c2ccccc2OC)c1`, for which the pIC50 in the assay with A549 is 4.59; in the assay with NCI-H460 it was below 4.52; in assay [1] it was below 4.52.
`COc1cccc(-c2cc(NC(=O)C(Cl)Cl)cc(-c3cccc(OC)c3)c2)c1`: the negative-log IC50 (pIC50) was 5.03 with A549, below 4.52 in the assay on NCI-H460 and below 4.52 in assay [1].
As to `COc1ccc(-c2cc(NC(=O)C(Cl)Cl)cc(-c3ccc(OC)cc3)c2)cc1`, the figures for the pIC50 (in the assay on A549; with NCI-H460; in assay [1]) were 4.68, below 4.52 and below 4.52, respectively.
For `CCOc1ccccc1-c1cc(NC(=O)C(Cl)Cl)cc(-c2ccccc2OCC)c1`, the results for the pIC50 (in the assay on A549; in the assay with NCI-H460; in assay [1]) were 5.14, 5.29 and 5.06, respectively.
For `CCOc1cccc(-c2cc(NC(=O)C(Cl)Cl)cc(-c3cccc(OCC)c3)c2)c1`, in that order: 5.05, 5.31 and 4.83.
For `CCOc1ccc(-c2cc(NC(=O)C(Cl)Cl)cc(-c3ccc(OCC)cc3)c2)cc1`, in that order: 5.09, 5.22 and 4.62.
For `CSc1ccccc1-c1cc(NC(=O)C(Cl)Cl)cc(-c2ccccc2SC)c1`, in that order: 5.19, below 4.52 and below 4.52.
With `CSc1cccc(-c2cc(NC(=O)C(Cl)Cl)cc(-c3cccc(SC)c3)c2)c1`, the pIC50 with A549 is 4.80; in the assay on NCI-H460, below 4.52; in assay [1], below 4.52.
With `CSc1ccc(-c2cc(NC(=O)C(Cl)Cl)cc(-c3ccc(SC)cc3)c2)cc1`, the figures for the pIC50 (in the assay on A549; in the assay with NCI-H460; in assay [1]) were 4.65, below 4.52 and below 4.52, respectively.
With `CC(C)Oc1ccc(-c2cc(NC(=O)C(Cl)Cl)cc(-c3ccc(OC(C)C)cc3)c2)cc1`, the negative logarithm of the IC50 (pIC50) with A549 is 5.42; with NCI-H460 it was 5.54; in assay [1], 5.05.
On to `O=C(Nc1cccc(-c2ccccc2)c1)C(Cl)Cl`, for which the pIC50 is 5.05 in the assay on A549, 4.69 with NCI-H460 and 4.33 in assay [1].
For `O=C(Nc1cccc(-c2ccoc2)c1)C(Cl)Cl`, in that order: 5.07, 4.42 and below 4.30.
For `O=C(Nc1cccc(-c2cccs2)c1)C(Cl)Cl`, in that order: 4.32, below 4.30 and below 4.30.
For `O=C(Nc1cccc(-c2ccsc2)c1)C(Cl)Cl`, in that order: below 4.30, below 4.30 and below 4.30.
In the case of `O=C(Nc1cccc(-c2ccccn2)c1)C(Cl)Cl`, the pIC50 (with A549; in the assay with NCI-H460; in assay [1]) was below 4.30 each time.
As for `Cc1ccccc1-c1cccc(NC(=O)C(Cl)Cl)c1`, the results for the negative logarithm of the IC50 (pIC50) (in the assay with A549; in the assay with NCI-H460; in assay [1]) were 5.01, 4.50 and 4.38, respectively.
For `O=C(Nc1cccc(-c2ccccc2F)c1)C(Cl)Cl`, in that order: 4.88, 4.57 and 4.32.
Turning to `O=C(Nc1cccc(-c2ccccc2Cl)c1)C(Cl)Cl`, the pIC50 was 4.65 in the assay on A549, below 4.30 with NCI-H460 and below 4.30 in assay [1].
`COc1ccccc1-c1cccc(NC(=O)C(Cl)Cl)c1`: the pIC50 is 4.88 in the assay on A549, 4.39 in the assay on NCI-H460 and 4.88 in assay [1].
Regarding `O=C(Nc1cccc(-c2ccccc2C(F)(F)F)c1)C(Cl)Cl`, the pIC50 in the assay with A549 was 5.12; with NCI-H460, 5.12; in assay [1], 4.44.
In the case of `Cc1cccc(-c2cccc(NC(=O)C(Cl)Cl)c2)c1`, the results for the negative-log IC50 (pIC50) (in the assay with A549; in the assay with NCI-H460; in assay [1]) were 5.06, 4.62 and below 4.30, respectively.
The matching figures for `O=C(Nc1cccc(-c2cccc(F)c2)c1)C(Cl)Cl`: 5.02, below 4.30 and below 4.30.
The matching figures for `O=C(Nc1cccc(-c2cccc(Cl)c2)c1)C(Cl)Cl`: 4.67, below 4.30 and below 4.30.
For `COc1cccc(-c2cccc(NC(=O)C(Cl)Cl)c2)c1`, in that order: 5.37, 4.47 and 4.36.
As for `O=C(Nc1cccc(-c2cccc(C(F)(F)F)c2)c1)C(Cl)Cl`, the pIC50 in the assay with A549 is 4.73; in the assay with NCI-H460, 4.52; in assay [1], below 4.30.
For `Nc1cccc(-c2cccc(NC(=O)C(Cl)Cl)c2)c1`, in that order: below 4.30, below 4.30 and 4.58.
Regarding `O=C([O-])C(Cl)Cl.[Na+]` [SODIUM DICHLOROACETATE], the values for the pIC50 (in the assay with A549; in the assay with NCI-H460; in assay [1]) were 2.37, 2.41 and 2.23, respectively.

The term pIC50 denotes the negative decadic logarithm of the IC50, by convention in mol/L. Low values mean a large IC50, high ones a small IC50.
